Source: US10206937B2, “Boronic acid derivatives and therapeutic uses thereof” (Qpex Biopharma, Inc., priority 2014, dated 2019)

Test system: strains of Enterobacteriaceae producing various carbapenemases (class A, D and B; 169 strains)
Test: Meropenem or tebipenem potentiation by Compounds 97 or 62 (MIC)
Type: cell-based
Method in brief: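 Meropenem and tebipenem MICs measured alone or with Compound 97 or 62 held at a fixed 8 μg/ml in the growth medium. Panel of 169 clinical Enterobacteriaceae isolates expressing class A, D and B carbapenemases, alone or with other beta-lactamases.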

C[C@@H](O)[C@H]1C(=O)N2C(C(=O)O)=C(SC3CN(C4=NCCS4)C3)[C@H](C)[C@H]12 [T]
Tebipenem MIC alone (T) (KP1182 Klebsiella pneumoniae SHV-OSBL(2b), NDM-1, OXA-232(c)): Z (MIC of greater than 10 μg/mL)
Tebipenem MIC alone (T) (KP1183 Klebsiella pneumoniae SHV-OSBL(2b), TEM-OSBL(2b), CTX-M-15, NDM-1): Z (MIC of greater than 10 μg/mL)
Tebipenem MIC alone (T) (KP1184 Klebsiella pneumoniae SHV-OSBL(2b), IMP-1): Y (MIC of 1 μg/mL to 10 μg/mL)
Tebipenem MIC alone (T) (KP1185 Klebsiella pneumoniae SHV-OSBL(2b), TEM-OSBL(2b), IMP-4): Z (MIC of greater than 10 μg/mL)
Tebipenem MIC alone (T) (KP1186 Klebsiella pneumoniae CTX-M-15, NDM-1): Z (MIC of greater than 10 μg/mL)
Tebipenem MIC alone (T) (KP1187 Klebsiella pneumoniae SHV-55(2be), TEM-OSBL(2b), CTX-M-15, NDM-1): Z (MIC of greater than 10 μg/mL)
Tebipenem MIC alone (T) (KP1188 Klebsiella pneumoniae SHV-OSBL(2b), CTX-M-15, NDM-1): Z (MIC of greater than 10 μg/mL)
Tebipenem MIC alone (T) (KP1189 Klebsiella pneumoniae TEM-OSBL(2b), CTX-M-15, CTX-M-27, NDM-1): Z (MIC of greater than 10 μg/mL)
Tebipenem MIC alone (T) (KP1190 Klebsiella pneumoniae KPC-4 VIM-4 TEM SHV): Z (MIC of greater than 10 μg/mL)
Tebipenem MIC alone (T) (KP1191 Klebsiella pneumoniae KPC-2): Z (MIC of greater than 10 μg/mL)
Tebipenem MIC alone (T) (KP1192 Klebsiella pneumoniae KPC-2 TEM SHV): Z (MIC of greater than 10 μg/mL)
Tebipenem MIC alone (T) (KP1193 Klebsiella pneumoniae KPC-3 TEM SHV): Z (MIC of greater than 10 μg/mL)
Tebipenem MIC alone (T) (KP1194 Klebsiella pneumoniae KPC TEM SHV): Z (MIC of greater than 10 μg/mL)
Tebipenem MIC alone (T) (KP1195 Klebsiella pneumoniae KPC TEM CTX-M-15): Z (MIC of greater than 10 μg/mL)
Tebipenem MIC alone (T) (KP1196 Klebsiella pneumoniae KPC TEM SHV CTX-M-15 CMY): Z (MIC of greater than 10 μg/mL)
Tebipenem MIC alone (T) (KP1197 Klebsiella pneumoniae KPC-3, VIM-1 TEM SHV): Z (MIC of greater than 10 μg/mL)
Tebipenem MIC alone (T) (KP1198 Klebsiella pneumoniae KPC-3, VIM-1 TEM SHV): Z (MIC of greater than 10 μg/mL)
Tebipenem MIC alone (T) (KP1199 Klebsiella pneumoniae KPC-3 TEM SHV): Z (MIC of greater than 10 μg/mL)
Tebipenem MIC alone (T) (KP1200 Klebsiella pneumoniae KPC-3 TEM SHV): Z (MIC of greater than 10 μg/mL)
Tebipenem MIC alone (T) (KP1210 Klebsiella pneumoniae KPC SHV TEM): Z (MIC of greater than 10 μg/mL)
Tebipenem MIC alone (T) (KP1211 Klebsiella pneumoniae KPC SHV TEM CTX-M-15): Z (MIC of greater than 10 μg/mL)
Tebipenem MIC alone (T) (KP1212 Klebsiella pneumoniae KPC SHV TEM CTX-M-15): Z (MIC of greater than 10 μg/mL)
Tebipenem MIC alone (T) (KP1213 Klebsiella pneumoniae KPC SHV TEM CTX-M-15): Z (MIC of greater than 10 μg/mL)
Tebipenem MIC alone (T) (KP1214 Klebsiella pneumoniae KPC SHV TEM + 1.9 kb): Z (MIC of greater than 10 μg/mL)
Tebipenem MIC alone (T) (KP1215 Klebsiella pneumoniae KPC SHV): Z (MIC of greater than 10 μg/mL)
Tebipenem MIC alone (T) (KP1216 Klebsiella pneumoniae KPC SHV TEM + 1.9 kb): Z (MIC of greater than 10 μg/mL)
Tebipenem MIC alone (T) (KP1217 Klebsiella pneumoniae KPC SHV TEM + 1.9 kb): Z (MIC of greater than 10 μg/mL)
Tebipenem MIC alone (T) (KP1218 Klebsiella pneumoniae KPC SHV TEM + 1.9 kb): Z (MIC of greater than 10 μg/mL)
Tebipenem MIC alone (T) (KP1219 Klebsiella pneumoniae KPC SHV TEM + 1.9 kb): Z (MIC of greater than 10 μg/mL)
Tebipenem MIC alone (T) (KP1220 Klebsiella pneumoniae KPC SHV TEM + 1.9 kb): Z (MIC of greater than 10 μg/mL)
Tebipenem MIC alone (T) (KP1221 Klebsiella pneumoniae KPC SHV TEM + 1.9 kb): Z (MIC of greater than 10 μg/mL)
Tebipenem MIC alone (T) (KP1222 Klebsiella pneumoniae KPC SHV TEM IMP): Z (MIC of greater than 10 μg/mL)
Tebipenem MIC alone (T) (KP1223 Klebsiella pneumoniae KPC SHV TEM): Z (MIC of greater than 10 μg/mL)
Tebipenem MIC alone (T) (KP1224 Klebsiella pneumoniae KPC SHV TEM): Z (MIC of greater than 10 μg/mL)
Tebipenem MIC alone (T) (KP1225 Klebsiella pneumoniae KPC SHV TEM + 1.9 kb CMY): Z (MIC of greater than 10 μg/mL)
Tebipenem MIC alone (T) (KP1226 Klebsiella pneumoniae KPC SHV TEM + 1.9 kb): Z (MIC of greater than 10 μg/mL)
Tebipenem MIC alone (T) (KP1227 Klebsiella pneumoniae KPC SHV TEM CTX-M-15): Z (MIC of greater than 10 μg/mL)
Tebipenem MIC alone (T) (KP1228 Klebsiella pneumoniae OXA-48 TEM SHV CTX-M-15): Y (MIC of 1 μg/mL to 10 μg/mL)
Tebipenem MIC alone (T) (KP1229 Klebsiella pneumoniae OXA-48 TEM SHV CTX-M-15): Z (MIC of greater than 10 μg/mL)
Tebipenem MIC alone (T) (KP1230 Klebsiella pneumoniae OXA-48 TEM SHV CTX-M-15): Y (MIC of 1 μg/mL to 10 μg/mL)
Tebipenem MIC alone (T) (KP1231 Klebsiella pneumoniae OXA-48 TEM SHV CTX-M-15): Y (MIC of 1 μg/mL to 10 μg/mL)
Tebipenem MIC alone (T) (KP1232 Klebsiella pneumoniae OXA-48 TEM SHV CTX-M-15): Z (MIC of greater than 10 μg/mL)
Tebipenem MIC alone (T) (KP1234 Klebsiella pneumoniae OXA-48 TEM SHV CTX-M-15): Z (MIC of greater than 10 μg/mL)
Tebipenem MIC alone (T) (KP1236 Klebsiella pneumoniae OXA-48 TEM SHV CTX-M-15): Z (MIC of greater than 10 μg/mL)
Tebipenem MIC alone (T) (PM1024 Proteus mirabilis TEM-1(2b), CMY-16, VIM-1): Z (MIC of greater than 10 μg/mL)
Tebipenem MIC alone (T) (PM1025 Proteus mirabilis SHV-5(2be), TEM-OSBL(2b), VEB-2, VIM-1): Y (MIC of 1 μg/mL to 10 μg/mL)
Tebipenem MIC alone (T) (PM1026 Proteus mirabilis DHA-1, IMP-26): Y (MIC of 1 μg/mL to 10 μg/mL)
Tebipenem MIC alone (T) (PM1027 Proteus mirabilis VIM-5): Z (MIC of greater than 10 μg/mL)
Tebipenem MIC alone (T) (SM1023 Serratia marcescens VIM-4): Z (MIC of greater than 10 μg/mL)
Tebipenem MIC alone (T) (SM1024 Serratia marcescens TEM-1(2b), IMP-47): Y (MIC of 1 μg/mL to 10 μg/mL)
